Assay results: PubChem BioAssay (NCI)
“And” between values parts separate entries of the source, which are not always exact repeats. Equal values may be shown once.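 Values below derive from 48-hour exposures of cells grown in 96-well plates, with endpoints linearly interpolated between the two concentrations bracketing the appropriate inhibition level. Here, GI50 denotes the concentration required for 50% inhibition of growth. TGI denotes the concentration required for complete inhibition of growth.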

Columns and labels:
Test in all cases: DTP human tumour cell line panel, 48 h
[1] = test system: SNB-19 CNS
[2] = test system: UACC-257 melanoma
[3] = test system: HOP-62 NSCLC
[4] = test system: T-47D breast
[5] = test system: OVCAR-5 ovarian
[6] = test system: CCRF-CEM leukemia
[7] = test system: SN12C renal
[8] = test system: HT29 colon
[9] = test system: ACHN renal
[10] = test system: A498 renal

| SMILES | TGI [1] | TGI [2] | TGI [3] [µM] | TGI [4] [µM] | TGI [5] | TGI [6] [µM] | TGI [7] | TGI [8] | TGI [9] [µM] | TGI [10] | GI50 [1] [µM] | GI50 [2] | GI50 [3] [µM] | GI50 [4] [µM] | GI50 [5] [nM] | GI50 [6] [nM] | GI50 [7] [nM] | GI50 [8] | GI50 [9] [µM] | GI50 [10] |
| --- | --- | --- | --- | --- | --- | --- | --- | --- | --- | --- | --- | --- | --- | --- | --- | --- | --- | --- | --- | --- |
| C/C(=N/NC(=S)N1CCN(C(=S)N/N=C(/C)c2ccccn2)CC1)c1ccccn1 | > 100 µM | > 100 µM | > 67.9 | 42.5 | > 100 µM | > 100 | > 100 µM | > 100 µM | > 44.1 | > 58.6 µM |  |  |  |  |  |  |  |  |  |  |
| Cc1cc2nc(-c3c(N)ncc(C#N)c3-c3ccc(Cl)cc3)[nH]c2cc1C | 75.6 µM | 82.6 µM | 21.7 | > 100 | > 100 µM | > 100 | > 100 µM | > 100 µM | > 100 | 59.2 µM | 19.5 | 11400 nM | 6.36 | 4.63 | 14700 | 24600 | 31000 | 6060 nM | 11.1 | 11800 nM |
| O=[N+]([O-])c1ccc2c(c1)n1c(N3CCCC3)[n+]3ccccc3c1c1c3cccc[n+]3c(N3CCCC3)n21 | > 100 µM | > 100 µM |  | > 100 | > 100 µM | 79.9 | > 100 µM |  |  | > 100 µM |  |  |  |  |  |  |  |  |  |  |
| COc1ccccc1NC(=S)N/N=C/c1ccccn1 | > 46.4 µM | 0.416 µM | 25.6 | 1.95 | > 46.4 µM | > 23.1 | 5.15 µM | > 31.6 µM | 8.9 | 5.04 µM |  |  |  |  |  |  |  |  |  |  |
| Clc1nc2c(C#Cc3ccccc3)ncnc2n1C1CCCCO1 (centres undefined) | 37.3 µM | 41.1 µM | > 100 | > 100 | 25.9 µM | > 100 | 23 µM | 27.6 µM | 30.9 |  |  |  |  |  |  |  |  |  |  |  |
| COc1cc(S(=O)(=O)Nc2ccc(-c3csc(/N=C\c4ccccc4)n3)cc2)ccc1Cl | > 100 µM |  | > 100 | > 100 | > 100 µM | > 100 | > 100 µM | > 100 µM | > 100 | > 100 µM |  |  |  |  |  |  |  |  |  |  |
| O=[N+]([O-])c1cc(F)ccc1Sc1ccccc1 | > 10 µM | > 10 µM | > 10 | > 10 | > 10 µM | > 10 | > 10 µM | > 10 µM | > 10 | > 10 µM |  |  |  |  |  |  |  |  |  |  |
| COc1cc(CNC(=S)CCCCCCCCCCC(C)C)ccc1O | > 100 µM | > 100 µM | > 100 | 97.5 | > 100 µM | > 100 | > 100 µM | > 100 µM | > 100 | > 100 µM |  |  |  |  |  |  |  |  |  |  |
| CCN(CC)C1Oc2cc3c(cc2C(c2cc(OC)c(OC)c(OC)c2)C1C)OCO3 (centres undefined) | > 53 µM | > 100 µM | 12.9 | > 88.7 | > 47.8 µM | > 22.9 | > 53.8 µM | 9.95 µM | > 38.7 | 6.65 µM |  |  |  |  |  |  |  |  |  |  |
| COC(=O)C1CC23C=CCN4CC(C2C)C2(c5ccccc5NC12)C43 (centres undefined) | > 100 µM | > 100 µM | > 100 | > 100 | > 100 µM | > 100 | > 100 µM | > 100 µM | > 100 | > 100 µM |  |  |  |  |  |  |  |  |  |  |
| C=C(C)[C@@H]1CC[C@]2(CO)CC[C@]3(C)[C@H](CC[C@@H]4[C@@](C)(CCCN)[C@H](C(=C)C)CC[C@]43C)[C@@H]12 |  |  |  |  | 3.04 µM | 4.76 | 2.75 µM | 3.77 µM | 3.21 | 3.15 µM |  |  |  |  | 1680 | 1840 | 1390 | 1580 nM | 1.82 | 1740 nM |
| Cn1c(=O)n(CC2CS2)c2ccccc21 (centres undefined) | > 100 µM |  | > 100 |  | > 100 µM | > 100 | > 100 µM | > 100 µM | > 100 |  |  |  |  |  |  |  |  |  |  |  |
| N#C/C(C(=O)Nc1ccccc1)=C(/N)N1CCCCC1 | > 100 µM | > 100 µM | > 100 | > 100 | > 100 µM | > 100 | > 100 µM | > 100 µM | > 100 |  |  |  |  |  |  |  |  |  |  |  |
| CCC1(OC(=O)CN)C(=O)OCc2c1cc1n(c2=O)Cc2cc3cc4c(cc3nc2-1)OCO4 (centres undefined) | 27.3 µM and 3.14 µM | 0.281 µM and 0.603 µM | < 0.01 |  | 0.114 µM and 0.219 µM |  | 21.8 µM and > 100 µM | 0.739 µM and 0.281 µM |  | 0.0787 µM and 0.241 µM | < 0.01 | < 10 nM and 48.4 nM | < 0.01 |  | < 10 | < 10 | < 10 | 24.5 nM and 17.1 nM |  | 16.1 nM and 38 nM |
| C=CC(OC(C)=O)c1ccc(OC(C)=O)cc1 (centres undefined) | 28.7 µM | 16 µM | 12.3 | 8.24 | 28.1 µM |  |  | 32.7 µM | 6.26 | 25.3 µM |  |  |  |  |  |  |  |  |  |  |
| CC(C)(CN1CCCCC1)C(/C=C/c1ccccc1)=N\NC(=O)N/N=C(/C=C/c1ccccc1)C(C)(C)CN1CCCCC1 | 3.95 µM | 3.1 µM | 3.71 |  | 15.4 µM | 3.37 | 4.03 µM | 2.53 µM | 11.9 | 2.95 µM |  |  |  |  |  |  |  |  |  |  |
| Cc1nc(Nc2nc3ccccc3[nH]2)nc(Cl)c1CCCl | > 100 µM | > 100 µM |  | > 100 |  | > 100 | > 100 µM | > 100 µM | > 100 | > 100 µM |  |  |  |  |  |  |  |  |  |  |
| CN(C)CCNC(=O)c1cc(NC(=O)c2cc(NC(=O)CC/C=C3/[C@@H]4CC[C@H]3N=N4)cn2C)cn1C | > 100 µM | > 100 µM | > 100 |  | > 100 µM | > 100 | > 100 µM | > 100 µM | > 100 | > 100 µM |  |  |  |  |  |  |  |  |  |  |
| COc1cc2c(cc1OC)C(=O)/C(=C/c1ccc(O)cc1)CC2 | > 10 µM | > 10 µM | > 10 | > 10 | > 10 µM | > 10 | > 10 µM | > 10 µM | > 10 |  |  |  |  |  |  |  |  |  |  |  |
| COc1cccc(C23CCCC(C2)N(C)CC3OC(=O)c2ccccc2)c1OC (centres undefined) | > 100 µM | > 100 µM | > 100 | 81.2 | > 100 µM | 25 |  | 43.3 µM | > 100 | > 100 µM |  |  |  |  |  |  |  |  |  |  |
| Cc1cn(CCOCCOC(=O)NC(CCCNC(N)=O)C(=O)O)c(=O)[nH]c1=O (centres undefined) | > 100 µM | > 100 µM | > 100 | > 100 | > 100 µM | > 100 | > 100 µM | > 100 µM | > 100 |  |  |  |  |  |  |  |  |  |  |  |
